Like-named read-outs stand apart in the source and are kept apart here.
Legend:
Format in all cases: in vivo
[1] = tested on: Triticum aestivum (TRZAS); settings: crop plant compatibility, effect vs untreated controls
How it was run: (§1)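 Percent effect on the crop was judged by eye against untreated controls, where 0% means like control and 100% means dead plants. Plants had been sprayed post-emergence at the one-leaf stage and then kept under optimum greenhouse conditions for about 3 weeks.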

[2] = tested on: Zea mays (ZEAMX); settings: for Post-emergence action against ZEAMX in % (crop plant compatibility): 20 g/ha, effect in comparison to untreated controls; for Post-emergence action against ZEAMX in %: crop plant compatibility, effect vs untreated controls
How it was run: as §1

[3] = tested on: Verconica persica (VERPE); experiment: Post-emergence herbicidal action against VERPE
How it was run: (§2)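 Greenhouse plants sprayed at the one-leaf stage, 2–3 weeks after sowing, with WP or EC formulations plus 0.5% additive at 600 l/ha water. Activity rated visually after about 3 weeks versus untreated controls (100% = dead, 0% = like control), at 320 g/ha or lower.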

[4] = tested on: Viola tricolor (VIOTR); experiment: Post-emergence herbicidal action against VIOTR
How it was run: as §2

[5] = tested on: Abutilon theophrasti (ABUTH); experiment: Post-emergence herbicidal action against ABUTH; settings: 320 g/ha, visual rating about 3 weeks after treatment vs untreated controls (100% = plants have died, 0% = like control plants)
How it was run: as §2

[6] = tested on: Pharbitis purpurea (PHBPU); experiment: Post-emergence herbicidal action against PHBPU; settings: dosage 320 g/ha
How it was run: as §2

[7] = tested on: Echinochloa crus-galli (ECHCG); experiment: Post-emergence herbicidal action against ECHCG; settings: dosage 320 g/ha
How it was run: as §2

[8] = tested on: Oryza sativa (ORYSA); settings: crop plant compatibility
How it was run: as §1

[9] = tested on: Verconica persica (VERPE); experiment: Pre-emergence herbicidal action against VERPE
How it was run: (§3)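 Seeds sown in pots and covered with soil; WP or EC formulations sprayed onto the soil surface at 600 l/ha water with 0.5% additive, at 320 g/ha or lower. Greenhouse growth for about 3 weeks, then visual scoring as % effect against untreated controls (100% = plants dead).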

[10] = tested on: Echinochloa crus-galli (ECHCG); experiment: Pre-emergence herbicidal action against ECHCG
How it was run: as §3

[11] = tested on: Polygonum convolvulus (POLCO); experiment: Pre-emergence herbicidal action against POLCO
How it was run: as §3

[12] = tested on: Pharbitis purpurea (PHBPU); experiment: Pre-emergence herbicidal action against PHBPU; settings: dosage 320 g/ha
How it was run: as §3

[13] = tested on: Setaria viridis (SETVI); experiment: Post-emergence herbicidal action against SETVI; settings: dosage 320 g/ha
How it was run: as §2

[14] = tested on: Viola tricolor (VIOTR); experiment: Pre-emergence herbicidal action against VIOTR
How it was run: as §3

[15] = tested on: Amaranthus retroflexus (AMARE); experiment: Post-emergence herbicidal action against AMARE
How it was run: as §2

[16] = tested on: Amaranthus retroflexus (AMARE); experiment: Pre-emergence herbicidal action against AMARE; settings: visual scoring after about 3 weeks vs untreated controls
How it was run: as §3

[17] = tested on: Alopecurus myosuroides (ALOMY); experiment: Post-emergence herbicidal action against ALOMY; settings: visual rating about 3 weeks after treatment vs untreated controls (100% = plants have died, 0% = like control plants)
How it was run: as §2

[18] = tested on: Polygonum convolvulus (POLCO); experiment: Post-emergence herbicidal action against POLCO
How it was run: as §2

[19] = tested on: Avena fatua (AVEFA); experiment: Post-emergence herbicidal action against AVEFA; settings: 80 g/ha, visual rating about 3 weeks after treatment
How it was run: as §2

[20] = tested on: Setaria viridis (SETVI); experiment: Pre-emergence herbicidal action against SETVI
How it was run: as §3

[21] = tested on: Lolium rigidum (LOLRI); experiment: Pre-emergence herbicidal action against LOLRI
How it was run: as §3

[22] = tested on: Alopecurus myosuroides (ALOMY); experiment: Pre-emergence herbicidal action against ALOMY; settings: scored visually after about 3 weeks, 100% = plants have died
How it was run: as §3

[23] = tested on: Avena fatua (AVEFA); experiment: Pre-emergence herbicidal action against AVEFA; settings: 320 g/ha, visual scoring after about 3 weeks vs untreated controls
How it was run: as §3

[24] = tested on: Matricaria inodora (MATIN); experiment: Pre-emergence herbicidal action against MATIN; settings: dosage 320 g/ha
How it was run: as §3

[25] = tested on: Lolium rigidum (LOLRI); experiment: Post-emergence herbicidal action against LOLRI; settings: dosage 320 g/ha
How it was run: as §2

[26] = 80 g/ha, effect in comparison to untreated controls
[27] = 320 g/ha, visual rating about 3 weeks after treatment
[28] = 20 g/ha, effect vs untreated controls
[29] = 320 g/ha, effect in comparison to untreated controls

Post-emergence action against TRZAS in % ([1]; 20 g/ha) [%]	Post-emergence action against TRZAS in % ([1]; 80 g/ha) [%]	Post-emergence action against ZEAMX in % (crop plant compatibility) [2] [%]	Post-emergence action against ZEAMX in % ([2]; 80 g/ha) [%]	Post-emergence action against ORYSA in % [8, 26] [%]	Post-emergence action against ORYSA in % [8, 28] [%]	SMILES	Post-emergence action against VERPE in % ([3]; 320 g/ha, VERPE) [%]	Post-emergence action against VIOTR in % ([4]; 80 g/ha) [%]	Post-emergence action against VIOTR in % ([4]; 320 g/ha) [%]	Post-emergence action against ABUTH in % [5] [%]	Post-emergence action against PHBPU in % [6] [%]	Post-emergence action against ECHCG in % [7] [%]	Post-emergence action against VERPE in % ([3]; dosage 80 g/ha) [%]	Pre-emergence action against VERPE in % ([9]; dosage 320 g/ha) [%]	Pre-emergence action against ECHCG in % ([10]; dosage 320 g/ha) [%]	Pre-emergence action against POLCO in % ([11]; dosage 320 g/ha) [%]	Pre-emergence action against VIOTR in % ([14]; 320 g/ha, Viola tricolor) [%]	Pre-emergence action against VIOTR in % ([14]; dosage 80 g/ha) [%]	Post-emergence action against AMARE in % [15, 27] [%]	Pre-emergence action against AMARE in % ([16]; 320 g/ha) [%]	other results
0	0	0	0			COC(=O)C(C)COC(=O)COc1nn(-c2ncccc2C(F)(F)F)c(-c2ccc(F)nc2)c1C1CC1(F)F (stereo not drawn) [Example I-268]	80	80	80	80	80										
	10			0		O=C(COc1nn(-c2ncccc2C(F)(F)F)c(-c2cncc(F)c2)c1Br)OCC1CCOC1 (racemic) [Example I-162]	90				90	80	80	90	80	100	100	80	80	90	Pre-emergence action against VERPE in % ([9]; dosage 80 g/ha): 90%; Pre-emergence action against PHBPU in % [12]: 90%; Post-emergence action against SETVI in % [13]: 80%
0	0	0	0	0	0	CCOC(=O)COc1nn(-c2cccnc2C)c(-c2ccc(F)nc2)c1Br [II-46]	90		90												Post-emergence action against ORYSA in % [8, 29]: 0%; Post-emergence action against ZEAMX in % ([2]; 320 g/ha): 20%; Post-emergence action against ALOMY in % ([17]; 320 g/ha): 80%; Post-emergence action against POLCO in % ([18]; dosage 320 g/ha): 80%
20		0	10		20	CS(=O)(=O)NC(=O)COc1nn(-c2ncccc2F)c(-c2ccc(F)nc2)c1Br [Example I-44]							80	80	100	90	100	100		90	Post-emergence action against AVEFA in % [19]: 90%; Pre-emergence action against SETVI in % ([20]; dosage 80 g/ha): 90%; Pre-emergence action against SETVI in % ([20]; dosage 320 g/ha): 100%; Pre-emergence action against LOLRI in % ([21]; dosage 80 g/ha): 80%; Pre-emergence action against LOLRI in % ([21]; dosage 320 g/ha): 100%; Pre-emergence action against ALOMY ([22]; 80 g/ha): 100%; Pre-emergence action against ALOMY ([22]; 320 g/ha): 100%; Pre-emergence action against AVEFA in % [23]: 90%; Pre-emergence action against MATIN in % [24]: 90%; Post-emergence action against ALOMY in % ([17]; 80 g/ha): 80%; Post-emergence action against POLCO in % ([18]; dosage 80 g/ha): 90%; Pre-emergence action against ECHCG in % ([10]; dosage 80 g/ha): 80%; Pre-emergence action against POLCO in % ([11]; dosage 80 g/ha): 90%; Post-emergence action against AMARE in % ([15]; 80 g/ha, visual rating about 3 weeks after treatment vs untreated controls (100% = plants have died, 0% = like control plants)): 80%; Pre-emergence action against AMARE in % ([16]; 80 g/ha): 80%
20	20	0	0	10	0	CCOC(=O)COc1nn(-c2ncccc2F)c(-c2ccnc(F)c2)c1I [Example I-137]	80	80	80	80		80							80		Post-emergence action against ORYSA in % [8, 29]: 20%; Post-emergence action against ZEAMX in % ([2]; 320 g/ha): 20%; Post-emergence action against LOLRI in % [25]: 90%; Post-emergence action against ALOMY in % ([17]; 320 g/ha): 80%; Post-emergence action against POLCO in % ([18]; dosage 80 g/ha): 80%; Post-emergence action against POLCO in % ([18]; dosage 320 g/ha): 80%
